From ChEMBL document CHEMBL1201862, “PubChem BioAssay data set” (2004)
Active and inactive are the calls of the source.

Assays:
[1] = cells; assay type: functional, cell-based
[2] = cells; assay type: functional, cell-based; remark: listed apart in the source
[3] = molecular target: T1, Neuropeptide Y receptor type 1 (Homo sapiens, UniProt P25929); assay type: functional;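 note: HEK293 cells with a CNG channel challenged with NPY then isoproterenol; potency as antagonist that reverses NPY suppression of cAMP signal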
T1 sequence (P25929 whole entry): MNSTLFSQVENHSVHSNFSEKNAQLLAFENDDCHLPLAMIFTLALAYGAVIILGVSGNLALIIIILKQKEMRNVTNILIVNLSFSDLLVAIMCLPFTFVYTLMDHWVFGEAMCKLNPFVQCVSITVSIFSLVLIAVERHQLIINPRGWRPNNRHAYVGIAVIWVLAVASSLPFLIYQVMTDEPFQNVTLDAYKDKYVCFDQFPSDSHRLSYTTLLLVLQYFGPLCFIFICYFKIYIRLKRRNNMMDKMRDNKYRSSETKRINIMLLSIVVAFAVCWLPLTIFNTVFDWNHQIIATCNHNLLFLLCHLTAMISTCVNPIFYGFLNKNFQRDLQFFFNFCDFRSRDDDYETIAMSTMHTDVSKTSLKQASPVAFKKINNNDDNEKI

[4] = molecular target: T2, Neuropeptide Y receptor type 2 (Homo sapiens, UniProt P49146); assay type: functional, cell-based;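 note: HEK293 cells expressing the receptor and a CNG channel; stimulus was NPY near EC95 followed by isoproterenol to raise cAMP; antagonist potency measured as restoring cAMP signal that NPY suppresses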
T2 sequence (P49146 whole entry): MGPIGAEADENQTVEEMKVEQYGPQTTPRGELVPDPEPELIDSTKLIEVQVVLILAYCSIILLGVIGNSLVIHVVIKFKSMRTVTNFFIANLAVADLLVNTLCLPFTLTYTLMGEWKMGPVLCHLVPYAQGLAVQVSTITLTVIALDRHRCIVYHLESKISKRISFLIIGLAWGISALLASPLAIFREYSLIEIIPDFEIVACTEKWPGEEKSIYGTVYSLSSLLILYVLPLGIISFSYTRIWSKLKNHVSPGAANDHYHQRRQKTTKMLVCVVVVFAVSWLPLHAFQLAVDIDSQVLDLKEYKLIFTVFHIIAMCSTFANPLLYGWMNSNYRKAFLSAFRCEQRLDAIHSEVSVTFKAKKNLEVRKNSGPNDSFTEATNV

[5] = molecular target: T3, RNA-binding protein pos-1 (Caenorhabditis elegans, UniProt G5EF15); assay: inhibitors of POS-1/mex-3 RNA binding, dose response, biochemical, fluorescence polarization (AID 1964);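 note: purified POS-1 fused to maltose binding protein made in E. coli; potency of compounds blocking POS-1 binding to fluorescent RNA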
T3 sequence (G5EF15 whole entry): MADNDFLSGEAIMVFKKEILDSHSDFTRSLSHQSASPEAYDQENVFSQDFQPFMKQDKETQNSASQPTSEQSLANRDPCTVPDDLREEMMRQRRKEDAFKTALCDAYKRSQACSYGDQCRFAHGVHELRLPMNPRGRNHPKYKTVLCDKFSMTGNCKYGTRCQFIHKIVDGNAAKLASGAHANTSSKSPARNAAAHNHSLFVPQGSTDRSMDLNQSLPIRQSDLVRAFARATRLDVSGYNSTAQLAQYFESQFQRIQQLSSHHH

[6] = molecular target: T4, Zinc finger protein mex-5 (Caenorhabditis elegans, UniProt Q9XUB2); assay: MEX-5/TCR-2 RNA interaction inhibitors, dose response, biochemical, C. elegans, fluorescence polarization (AID 1960)
T4 sequence (Q9XUB2 whole entry): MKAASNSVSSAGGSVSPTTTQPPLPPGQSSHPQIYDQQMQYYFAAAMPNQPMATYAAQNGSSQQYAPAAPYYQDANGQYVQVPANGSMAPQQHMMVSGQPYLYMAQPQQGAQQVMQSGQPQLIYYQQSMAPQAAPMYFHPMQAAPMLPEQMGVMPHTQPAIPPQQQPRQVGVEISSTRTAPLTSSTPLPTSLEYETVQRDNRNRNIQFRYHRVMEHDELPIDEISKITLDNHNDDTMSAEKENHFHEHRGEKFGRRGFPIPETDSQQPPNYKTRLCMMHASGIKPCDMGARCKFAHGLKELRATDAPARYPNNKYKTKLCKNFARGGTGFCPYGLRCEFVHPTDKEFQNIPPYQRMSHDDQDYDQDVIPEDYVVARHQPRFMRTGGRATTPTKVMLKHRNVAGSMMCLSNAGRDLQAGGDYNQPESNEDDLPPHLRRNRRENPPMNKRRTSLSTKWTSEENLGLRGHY

[7] = molecular target: Mucolipin-3 (Homo sapiens, UniProt Q8TDD5); assay: Dose response cell-based high-throughput screening assay for agonists of the transient receptor potential channel ML3 (TRPML3). [Related pubchem assays: 1526, 1424, 1448 ]; assay type: functional
[8] = molecular target: T5, Corticotropin-releasing factor receptor 2/Corticotropin-releasing factor-binding protein (Homo sapiens, UniProt P24387+Q13324); assay: activators of CRF receptor 2 with binding protein – uHTS hits, confirmation (AID 602473); assay type: functional; conditions: read-out: EC50_Mean
T5 sequence (Q13324 whole entry): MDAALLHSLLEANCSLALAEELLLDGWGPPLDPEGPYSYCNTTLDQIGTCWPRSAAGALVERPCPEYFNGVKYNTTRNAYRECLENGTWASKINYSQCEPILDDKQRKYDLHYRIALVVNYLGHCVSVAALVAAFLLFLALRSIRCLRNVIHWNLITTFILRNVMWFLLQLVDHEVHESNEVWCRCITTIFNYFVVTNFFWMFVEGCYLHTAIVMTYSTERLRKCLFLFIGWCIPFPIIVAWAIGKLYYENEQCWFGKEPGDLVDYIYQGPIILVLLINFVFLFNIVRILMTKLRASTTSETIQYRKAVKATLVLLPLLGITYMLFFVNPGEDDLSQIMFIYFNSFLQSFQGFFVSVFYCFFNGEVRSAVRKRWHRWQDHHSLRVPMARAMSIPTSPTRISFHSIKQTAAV
T5 sequence (P24387 whole entry): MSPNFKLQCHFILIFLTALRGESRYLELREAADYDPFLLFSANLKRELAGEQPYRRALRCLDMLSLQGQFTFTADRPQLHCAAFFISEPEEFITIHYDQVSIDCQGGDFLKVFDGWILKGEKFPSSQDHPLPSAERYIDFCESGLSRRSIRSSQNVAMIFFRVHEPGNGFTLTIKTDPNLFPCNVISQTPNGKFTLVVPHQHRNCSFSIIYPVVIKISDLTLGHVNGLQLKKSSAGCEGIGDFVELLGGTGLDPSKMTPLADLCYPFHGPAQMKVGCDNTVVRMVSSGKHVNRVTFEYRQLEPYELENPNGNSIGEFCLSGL

[9] = molecular target: Ion channel NompC (Danio rerio, UniProt Q7T1G6); assay: Fluorescence counterscreen assay for TRPML3 agonists: dose response cell-based high-throughput screening assay to identify agonists of the transient receptor potential channel N1 (TRPN1). [Related pubchem assays: 1526, 1424, 1448 ]; assay type: functional
[10] = molecular target: Luciferin 4-monooxygenase (Photinus pyralis, UniProt P08659); assay: Counter Screen for Luciferase-based Assay Positives. [Related pubchem assays: 620, 618, 411 ]
[11] = system: HT-1080; assay: cytotoxicity in HT1080 fibrosarcoma cells, cell-based, fluorescence readout (AID 620); assay type: functional; conditions: Homo sapiens

Chain of Ion channel NompC (Q7T1G6 whole entry): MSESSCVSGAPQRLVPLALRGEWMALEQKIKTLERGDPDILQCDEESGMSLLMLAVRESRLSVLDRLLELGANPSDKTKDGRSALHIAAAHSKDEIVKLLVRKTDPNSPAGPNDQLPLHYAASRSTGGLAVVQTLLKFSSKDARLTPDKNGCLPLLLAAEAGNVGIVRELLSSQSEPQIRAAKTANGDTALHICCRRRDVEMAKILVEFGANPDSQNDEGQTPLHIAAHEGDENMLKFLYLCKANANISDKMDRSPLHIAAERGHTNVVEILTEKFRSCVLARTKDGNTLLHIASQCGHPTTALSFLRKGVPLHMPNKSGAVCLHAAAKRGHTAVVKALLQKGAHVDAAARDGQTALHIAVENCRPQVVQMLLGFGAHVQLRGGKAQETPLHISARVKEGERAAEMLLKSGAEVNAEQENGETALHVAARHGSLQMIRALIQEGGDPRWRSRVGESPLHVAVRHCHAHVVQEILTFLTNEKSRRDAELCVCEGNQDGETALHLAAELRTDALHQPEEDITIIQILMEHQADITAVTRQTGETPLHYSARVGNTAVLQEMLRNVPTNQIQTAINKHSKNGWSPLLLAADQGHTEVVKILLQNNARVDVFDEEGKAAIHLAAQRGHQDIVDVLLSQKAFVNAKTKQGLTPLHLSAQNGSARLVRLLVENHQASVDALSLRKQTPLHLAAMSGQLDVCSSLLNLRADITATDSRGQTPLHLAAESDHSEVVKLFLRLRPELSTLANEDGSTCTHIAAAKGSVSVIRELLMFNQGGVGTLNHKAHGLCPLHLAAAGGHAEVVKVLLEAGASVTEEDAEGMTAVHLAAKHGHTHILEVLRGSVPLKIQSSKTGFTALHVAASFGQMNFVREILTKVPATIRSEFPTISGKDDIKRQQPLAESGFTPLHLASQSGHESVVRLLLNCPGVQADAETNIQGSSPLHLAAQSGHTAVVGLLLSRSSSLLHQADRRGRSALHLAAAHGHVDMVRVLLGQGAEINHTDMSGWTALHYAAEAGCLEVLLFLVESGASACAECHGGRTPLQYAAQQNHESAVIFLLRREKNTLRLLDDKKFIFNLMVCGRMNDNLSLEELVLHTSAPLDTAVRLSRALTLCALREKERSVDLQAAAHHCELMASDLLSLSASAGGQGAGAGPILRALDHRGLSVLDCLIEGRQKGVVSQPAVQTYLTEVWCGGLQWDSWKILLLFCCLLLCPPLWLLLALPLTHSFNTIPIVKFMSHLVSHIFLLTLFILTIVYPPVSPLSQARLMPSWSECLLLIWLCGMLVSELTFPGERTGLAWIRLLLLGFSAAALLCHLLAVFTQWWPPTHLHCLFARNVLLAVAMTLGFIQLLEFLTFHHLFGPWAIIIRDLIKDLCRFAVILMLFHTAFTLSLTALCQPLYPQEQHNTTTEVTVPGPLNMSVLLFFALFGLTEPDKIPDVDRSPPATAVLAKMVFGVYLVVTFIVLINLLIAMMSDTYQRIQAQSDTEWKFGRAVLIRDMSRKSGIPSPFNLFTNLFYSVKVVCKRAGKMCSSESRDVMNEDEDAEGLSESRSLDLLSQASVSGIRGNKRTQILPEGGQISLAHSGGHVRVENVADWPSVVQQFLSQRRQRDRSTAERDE
Chain of Mucolipin-3 (Q8TDD5 whole entry): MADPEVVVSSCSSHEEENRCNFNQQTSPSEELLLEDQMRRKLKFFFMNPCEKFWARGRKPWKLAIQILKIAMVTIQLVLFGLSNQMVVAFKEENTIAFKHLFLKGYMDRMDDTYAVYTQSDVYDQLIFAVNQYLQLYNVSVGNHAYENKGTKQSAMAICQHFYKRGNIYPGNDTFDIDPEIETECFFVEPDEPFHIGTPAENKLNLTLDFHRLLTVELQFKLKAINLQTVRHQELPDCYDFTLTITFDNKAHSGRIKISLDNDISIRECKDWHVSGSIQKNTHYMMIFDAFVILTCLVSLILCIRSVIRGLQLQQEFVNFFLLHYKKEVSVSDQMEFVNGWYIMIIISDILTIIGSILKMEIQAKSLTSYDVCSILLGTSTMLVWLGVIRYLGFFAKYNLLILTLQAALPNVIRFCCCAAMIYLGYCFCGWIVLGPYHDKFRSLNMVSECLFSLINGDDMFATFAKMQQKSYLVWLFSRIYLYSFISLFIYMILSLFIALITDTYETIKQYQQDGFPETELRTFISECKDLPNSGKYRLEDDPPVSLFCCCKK
Chain of Luciferin 4-monooxygenase (P08659 whole entry): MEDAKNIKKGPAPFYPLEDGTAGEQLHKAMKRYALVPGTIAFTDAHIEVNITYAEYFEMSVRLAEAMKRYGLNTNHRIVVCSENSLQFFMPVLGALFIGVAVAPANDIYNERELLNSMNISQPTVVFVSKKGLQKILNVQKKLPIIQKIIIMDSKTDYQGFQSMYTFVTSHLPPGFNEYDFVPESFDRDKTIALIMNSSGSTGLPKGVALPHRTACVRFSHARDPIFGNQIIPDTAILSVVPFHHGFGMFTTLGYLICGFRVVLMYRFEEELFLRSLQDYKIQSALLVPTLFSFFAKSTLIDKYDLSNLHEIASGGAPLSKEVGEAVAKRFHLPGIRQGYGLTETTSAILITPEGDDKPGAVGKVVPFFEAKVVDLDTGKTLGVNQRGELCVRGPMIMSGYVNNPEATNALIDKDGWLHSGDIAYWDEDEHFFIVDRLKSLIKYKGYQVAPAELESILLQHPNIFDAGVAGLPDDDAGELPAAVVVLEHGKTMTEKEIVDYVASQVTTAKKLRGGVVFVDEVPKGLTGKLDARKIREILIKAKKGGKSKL

| Structure (SMILES) | IC50 [3] | IC50 [4] | EC50 [7] | EC50 [9] | also measured |
| --- | --- | --- | --- | --- | --- |
| CCCCCCCCCS(=O)(=O)N/N=C/c1cccc([N+](=O)[O-])c1 | > 35 µM (not active) | > 35 µM (not active) |  |  | EC50 [1]: 23.7 µM (active); EC50 [2]: > 350 µM (not active) |
| O=C1C2CC=C(Cl)CC2C(=O)N1CC1Cc2ccccc2CO1 (stereo not given) | 7.82 µM (active) | 5.72 µM (active) |  |  | EC50 [5]: 23 µM (active); EC50 [6]: 22 µM (active) |
| COc1ccc(C(=O)CSc2nnn(-c3cccc(NC(C)=O)c3)n2)cc1 |  |  | 17.3 µM (not active) | 9.35 µM (active) | EC50 [8]: 4.96 µM (active) |
| CC(C)[C@H](NS(=O)(=O)c1ccccc1)C(=O)OCC(=O)Nc1ccccc1Sc1ccccc1 |  |  | 3.96 µM (active) | > 29.9 µM (not active) |  |
| COc1ccc(S(=O)(=O)N2CCN(C(=O)CCC3CCCC3)CC2)cc1 |  |  |  |  | EC50 [10]: 2.3 µM (active); EC50 [11]: > 50 µM (not active) |
